Measured values as given in US5795907A, “Gastin and CCK receptor ligands” (James Black Foundation Limited, priority 1994, dated 1998).

Tests used:
[1] = target: T1, gastrin (Rattus norvegicus, UniProt P30553); assay: gastrin antagonist activity in an immature rat stomach assay (pentagastrin-stimulated acid secretion); settings: cumulative pentagastrin dose-response curves after 60 min with drug; for Kb: read-out: Gastrin pKB (converted)
T1 construct: The stomach was lowered into a jacketed organ bath containing 40 ml of buffered solution; from tissue; host or cells: isolated perfused whole stomach of immature rats (ca. 21 days old)
T1 sequence (P30553 1-452): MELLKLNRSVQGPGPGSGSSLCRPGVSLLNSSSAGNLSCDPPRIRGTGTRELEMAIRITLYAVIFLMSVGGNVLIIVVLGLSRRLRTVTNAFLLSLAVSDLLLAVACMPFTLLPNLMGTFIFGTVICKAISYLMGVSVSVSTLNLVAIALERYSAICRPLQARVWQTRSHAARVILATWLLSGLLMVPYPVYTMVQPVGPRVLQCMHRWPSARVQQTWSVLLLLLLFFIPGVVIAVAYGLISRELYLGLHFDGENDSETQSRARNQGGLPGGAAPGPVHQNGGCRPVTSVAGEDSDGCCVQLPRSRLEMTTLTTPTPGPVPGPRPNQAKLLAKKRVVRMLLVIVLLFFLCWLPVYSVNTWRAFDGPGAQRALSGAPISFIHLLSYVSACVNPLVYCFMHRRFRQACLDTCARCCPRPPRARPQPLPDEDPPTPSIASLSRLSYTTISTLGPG
Description: The compounds of the examples were also tested for gastrin antagonist activity in an immature rat stomach assay. The procedure was as follows:
The oesophagus of immature rats (33-50 g, ca. 21 days old) was ligated at the level of the cardiac sphincter and the duodenal sphincter was cannulated. The stomach was excised and flushed with ca. 1 ml of unbuffered physiological saline solution. The fundus was punctured and cannulated. A further 4-5 ml of unbuffered solution was flushed through the stomach to ensure the preparation was not leaking. The stomach was lowered into a jacketed organ bath containing 40 ml of buffered solution containing 3×10^-8 M 5-methylfurmethide, maintained at 37° and gassed vigorously with 95% O2 /5% CO2. The stomach was continuously perfused at a rate of 1 ml min^-1 with unbuffered solution gassed with 100% O2 with the perfusate passing over an internally referenced pH-electrode fixed 12 cm above the stomach.
After 120 min of stabilisation the drugs were added directly to the serosal solution in the organ bath and after a further 60 min cumulative pentagastrin dose-response curves were started. Changes in acid secretion were monitored and the curves analysed according to Black et.al., Br. J. Pharmacol., 1985, 86, 581.

[2] = target: T2, CCKB receptor (Mus musculus, UniProt P56481); assay: CCKB receptor radioligand binding assay in mouse cortical membranes ([125I]-CCK8S); settings: [125I]-CCK8S 200 pM, 150 min at 21±3°; for Ki: read-out: CCKB pKi (converted)
T2 construct: The cortex was dissected, weighed and homogenised in 40ml ice-cold buffer; tissue Charles River (supplier of the CD1 mice); host or cells: cerebral cortex membranes of male CD1 mice
T2 sequence (P56481 1-453): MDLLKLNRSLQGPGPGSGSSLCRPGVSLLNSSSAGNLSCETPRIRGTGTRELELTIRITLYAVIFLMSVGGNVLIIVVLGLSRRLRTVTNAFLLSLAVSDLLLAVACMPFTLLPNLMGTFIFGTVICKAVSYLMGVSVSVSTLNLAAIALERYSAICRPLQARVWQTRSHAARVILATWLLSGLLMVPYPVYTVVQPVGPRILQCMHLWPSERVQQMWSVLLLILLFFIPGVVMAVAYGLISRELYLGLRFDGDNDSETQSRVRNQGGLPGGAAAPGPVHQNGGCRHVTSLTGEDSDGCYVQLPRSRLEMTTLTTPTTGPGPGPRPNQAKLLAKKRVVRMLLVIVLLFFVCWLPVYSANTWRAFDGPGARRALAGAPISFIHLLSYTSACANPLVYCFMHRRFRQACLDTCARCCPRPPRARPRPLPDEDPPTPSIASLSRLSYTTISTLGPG
Summary of the method: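 Cortical membranes from male CD1 mice in HEPES buffer (pH 7.2; NaCl, KCl, MgCl2, EDTA, bacitracin) were incubated with competing compound and [125I]-CCK8S (added as a 200 pM solution) for 150 min at 21±3°. Non-specific binding was defined with L-365,260. Bound tracer was separated by GF/B filtration and counted by gamma counting.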

[3] = target: T3, CCKA (Cavia porcellus, UniProt Q63931); assay: CCKA radioligand binding assay in guinea-pig pancreas membranes ([125I]-CCK8(S)); settings: PD134,308 present, 150 minutes at 21±3°; for Ki: read-out: CCKA pKi (converted)
T3 construct: The pancreatata were homogenised in 40 ml ice-cold HEPES buffer using a polytron; from tissue; host or cells: pancreas membranes of male Dunkin Hartley guinea-pigs
T3 sequence (Q63931 1-430): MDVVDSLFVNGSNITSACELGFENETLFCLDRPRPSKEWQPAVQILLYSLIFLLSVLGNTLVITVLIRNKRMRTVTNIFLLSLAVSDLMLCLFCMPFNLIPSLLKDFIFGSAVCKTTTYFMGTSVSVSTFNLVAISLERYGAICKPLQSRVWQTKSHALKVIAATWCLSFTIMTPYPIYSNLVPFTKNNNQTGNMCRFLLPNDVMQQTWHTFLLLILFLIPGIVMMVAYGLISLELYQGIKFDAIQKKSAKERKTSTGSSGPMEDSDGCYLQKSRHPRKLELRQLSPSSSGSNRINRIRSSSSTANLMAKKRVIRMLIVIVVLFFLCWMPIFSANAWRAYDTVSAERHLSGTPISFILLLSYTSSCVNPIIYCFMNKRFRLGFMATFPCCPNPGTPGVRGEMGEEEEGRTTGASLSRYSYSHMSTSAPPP
Summary of the method: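 Male guinea-pig pancreas membranes (1 mg/ml wet tissue in HEPES pH 7.2, suspension containing 0.375 μM PD134,308) were incubated 150 min at 21±3° with [125I]-CCK8(S) ([…] added solution) and competitor. Non-specific binding used 100 nM L-364,718 (added solution). Bound radioligand was measured by GF/B filtration and gamma counting.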

O=C(O)c1cc(NC(=O)[C@H](Cc2ccccc2)NC(=O)c2cc3[nH]cnc3cc2C(=O)NCC2CCCCCC2)cc(C(=O)O)c1 [Example 62, 5-(1S-(3,5-dicarboxyphenylaminocarbonyl)-2-phenylethylaminocarbonyl)-6-(1-cycloheptanemethylaminocarbonyl)-benzimidazole]
Kb [1]: 6.31 nM
Ki [2]: 15.8 nM
Ki [3]: 3980 nM

O=C(NCC12CC3CC(CC(C3)C1)C2)c1cc2ccccc2cc1C(=O)N1CCC[C@@H]1C(=O)O [Example 3, 3-(2R-carboxypyrrolidino-carbonyl)-2-(1-adamantanemethylaminocarbonyl)-naphthalene]
Kb [1]: 200 nM
Ki [2]: 398 nM
Ki [3]: 3160 nM

O=C(O)c1cc(NC(=O)[C@@H]2CCCN2C(=O)c2cc3[nH]cnc3cc2C(=O)NCC23CC4CC(CC(C4)C2)C3)cc(C(=O)O)c1 [Example 77, 5-(2S-(3,5-dicarboxyphenylaminocarbonyl)-pyrrolidinocarbonyl)-6-(1-adamantanemethylaminocarbonyl)-benzimidazole]
Kb [1]: 100 nM
Ki [2]: 251 nM
Ki [3]: > 10000 nM

O=C(NCC12CC3CC(CC(C3)C1)C2)c1cc2[nH]ccc2cc1C(=O)N[C@@H](Cc1ccccc1)C(=O)Nc1cccc(-c2nn[nH]n2)c1 [Example 100, 5-(1S-(3-tetrazolylphenylaminocarbonyl)-2-phenylethylaminocarbonyl)-6-(1-adamantanemethylaminocarbonyl)-indole]
Kb [1]: 31.6 nM
Ki [2]: 12.6 nM
Ki [3]: 398 nM

CC(C)(C)C(=O)OCOC(=O)c1cc(NC(=O)[C@H](Cc2ccccc2)NC(=O)c2cc3cc[nH]c3cc2C(=O)NCC23CC4CC(CC(C4)C2)C3)cc(C(=O)OCOC(=O)C(C)(C)C)c1 [Example 33, 5-(1S-(3,5-dipivaloyloxymethyloxycarbonylphenylaminocarbonyl)-2-phenylethylaminocarbonyl)-6-(1-adamantanemethylaminocarbonyl)-indole]
Kb [1]: 20 nM
Ki [2]: 2510 nM
Ki [3]: 6310 nM

O=C(NCC12CC3CC(CC(C3)C1)C2)c1cc2nc[nH]c2cc1C(=O)N[C@@H](Cc1ccccc1)C(=O)Nc1cc(-c2nn[nH]n2)cc(-c2nn[nH]n2)c1 [Example 80, 5-(1S-(3,5-ditetrazolylphenylaminocarbonyl)-2-phenylethylaminocarbonyl)-6-(1-adamantanemethylaminocarbonyl)-benzimidazole]
Kb [1]: 6.31 nM
Ki [2]: 3.98 nM
Ki [3]: 794 nM

Cn1cnc2cc(C(=O)N[C@@H](Cc3ccccc3)C(=O)Nc3cc(C(=O)O)cc(C(=O)O)c3)c(C(=O)NCC34CC5CC(CC(C5)C3)C4)cc21 [Example 74, N-methyl-5-(1S-(3,5-dicarboxyphenylaminocarbonyl)-2-phenylethylaminocarbonyl)-6-(1-adamantanemethylaminocarbonyl)-benzimidazole]
Gastrin pKB [1]: 9.0
CCKB pKi [2]: 7.6
CCKA pKi [3]: 5.3

O=C(O)CNC(=O)[C@@H](Cc1ccccc1)NC(=O)c1cc2cc[nH]c2cc1C(=O)NCC12CC3CC(CC(C3)C1)C2 [Example 91, 5-(1R-(carboxymethylaminocarbonyl)-2-phenylethylaminocarbonyl)-6-(1-adamantanemethylaminocarbonyl)-indole]
Gastrin pKB [1]: 8.0
CCKB pKi [2]: 7.4
CCKA pKi [3]: 5.3

O=C(O)c1ccc(Cl)c(NC(=O)[C@H](Cc2ccccc2)NC(=O)c2cc3[nH]cnc3cc2C(=O)NCC23CC4CC(CC(C4)C2)C3)c1 [Example 127, 5-(1S-(^2-chloro-5-carboxyphenylaminocarbonyl)-2-phenylethylaminocarbonyl)-6-(1-adamantanemethylaminocarbonyl)-benzimidazole]
Kb [1]: 31.6 nM
Ki [2]: 25.1 nM
Ki [3]: 1260 nM

C[C@H](NC(=O)[C@H]1CCCN1C(=O)c1cc2ccccc2cc1C(=O)N(C)CC12CC3CC(CC(C3)C1)C2)C(=O)O [Example 13, 2-(2R-(1S-carboxyethylaminocarbonyl)pyrrolidinocarbonyl)-3-(1-adamantanemethyl(N-methyl)aminocarbonyl)-naphthalene]
Kb [1]: 398 nM
Ki [2]: 2000 nM

O=C(O)c1cc(NC(=O)[C@H](Cc2ccc(I)cc2)NC(=O)c2cc3cc[nH]c3cc2C(=O)NCC23CC4CC(CC(C4)C2)C3)cc(C(=O)O)c1 [Example 32, 5-(1S-(3,5-dicarboxyphenylaminocarbonyl)-2-(4-iodophenyl)ethylaminocarbonyl)-6-(1-adamantanemethylaminocarbonyl)-indole]
Kb [1]: 0.794 nM
Ki [2]: 3.98 nM

O=C(NS(=O)(=O)c1cccc(NC(=O)[C@H](Cc2ccccc2)NC(=O)c2cc3[nH]cnc3cc2C(=O)NCC23CC4CC(CC(C4)C2)C3)c1)c1ccccc1 [Example 139, 5-(1S-(3-benzoylaminosulphonylphenylaminocarbonyl)-2-phenylethylaminocarbonyl)-6-(1-adamantanemethylaminocarbonyl)-benzimidazole]
Kb [1]: 79.4 nM
Ki [2]: 15.8 nM

1/2-(1-adamantanemethylaminocarbonyl)-naphthoic acid Regioisomer 1 [Example 21]
Gastrin pKB [1]: 5.3
CCKA pKi [3]: 5.2

C[C@@H](NC(=O)[C@H]1CCCN1C(=O)c1cc2ccccc2cc1C(=O)N(C)CC12CC3CC(CC(C3)C1)C2)C(=O)O [Example 12, 2-(2R-(1R-carboxyethylaminocarbonyl)pyrrolidinocarbonyl)-3-(1-adamantanemethyl(N-methyl)aminocarbonyl)-naphthalene]
Kb [1]: 1260 nM
Ki [2]: 1260 nM

CN(CC12CC3CC(CC(C3)C1)C2)C(=O)c1cc2ccccc2cc1C(=O)N1CCC[C@@H]1C(=O)NCC(=O)O [Example 14, 2-(2R-carboxymethylaminocarbonylpyrrolidino-carbonyl)-3-(1-adamantanemethyl(N-methyl)aminocarbonyl)-naphthalene]
Kb [1]: 316 nM
Ki [2]: 1000 nM

O=C(O)c1cc(NC(=O)[C@H](Cc2ccccc2C(F)(F)F)NC(=O)c2cc3[nH]cnc3cc2C(=O)NCC23CC4CC(CC(C4)C2)C3)cc(C(=O)O)c1 [Example 133, 5-(1S-(3,5-dicarboxyphenylaminocarbonyl)-2-(2-trifluoromethylphenyl)ethylaminocarbonyl)-6-(1-adamantanemethylaminocarbonyl)-benzimidazole]
Kb [1]: 7.94 nM
Ki [3]: 7940 nM
